# Experimental data reported in patent publication US9546157B2, “Asymmetric piperidinyl-substituted ureas as medicines” (Helsinn Healthcare SA, priority 2014, dated 2017).
# Tests used:
# [1] = biological target: T1, GHSR1a (Homo sapiens, UniProt Q92847); assay: Calcium FLIPR assay, GHSR-1a agonism; type: cell-based; parameters: Emax: unit not given here; conditions: HEK293/GHSR1a cells
# T1 construct: expressed in transfected cells; host or cells: HEK293
# Experimental: (§1) The intracellular calcium assay was carried out in a 384-well format FLIPR™ (Molecular Device) HEK293/GHSR1a cell line. Cells were seeded 24 hr prior to the experiments at an optimal density per well. Preincubation with selected calcium dye lasted for 30-60 min at room temperature or 37° C. Test compounds, dissolved in DMSO, were added at the appropriate time and incubated for 15 min followed by the addition of ghrelin with FlexStation or FLIPR. Relative fluorescence was monitored by the FLIPR™ Molecular Device. EC50 and IC50 values were estimated from dose-response data using GraphPad Prism software. To check for GHSR-1a agonism the compound was added at t=20 sec. and the calcium response was followed for 2 minutes. To check for GHSR-1a antagonism the compound and Ghrelin (10 nM) were added to the cells at t=20 sec. and the calcium response was measured for 2 minutes. The potency of the antagonist was calculated by its ability to reduce the ghrelin response. Dose-response curves were made for relevant antagonists.
# [2] = biological target: T1, GHSR1a; assay: Calcium FLIPR assay, GHSR-1a antagonism (reduction of ghrelin response); type: cell-based; conditions: HEK293/GHSR1a cells, ghrelin 10 nM
# Experimental: as §1
# T1 sequence (Q92847 whole entry): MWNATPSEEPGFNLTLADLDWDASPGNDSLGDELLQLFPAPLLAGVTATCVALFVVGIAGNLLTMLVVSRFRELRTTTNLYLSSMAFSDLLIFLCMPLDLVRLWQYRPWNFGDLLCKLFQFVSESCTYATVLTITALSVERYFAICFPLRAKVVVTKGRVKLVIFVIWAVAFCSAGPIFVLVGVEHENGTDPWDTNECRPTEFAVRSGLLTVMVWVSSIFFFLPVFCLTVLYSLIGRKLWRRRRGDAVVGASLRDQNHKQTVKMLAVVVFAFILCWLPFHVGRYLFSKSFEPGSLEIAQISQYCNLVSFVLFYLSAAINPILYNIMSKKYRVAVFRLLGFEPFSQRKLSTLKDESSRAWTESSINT
Compound,EC50 [1],IC50 [2],Emax [1]
"CC(NC(=O)N(C)C1CCN(C)CC1)c1ccc(-c2nnco2)c(Cl)c1Cl (centres unmarked) [Compound H0595, 3-(1-(2,3-dichloro-4-(1,3,4-oxadiazol-2-yl)phenyl)ethyl)-1-methyl-1-(1-methylpiperidin-4-yl)urea]",43 nM,28 nM,
"CN1CCC(N(C)C(=O)NC(C#N)c2ccc(-c3cncc(C#N)c3)c(Cl)c2Cl)CC1 (centres unmarked) [Compound H0666, 3-(cyano(2,3-dichloro-4-(5-cyanopyridin-3-yl)phenyl)methyl)-1-methyl-1-(1-methylpiperidin-4-yl)urea]",21 nM,8 nM,4927
"CC(NC(=O)N(C)C1CCN(C)CC1)c1ccc(CF)c(Cl)c1Cl (centres unmarked) [Compound H0634, 3-(1-(2,3-dichloro-4-(fluoromethyl)phenyl)ethyl)-1-methyl-1-(1-methylpiperidin-4-yl)urea]",37 nM,13 nM,
"CC(NC(=O)N(O)C1CCN(C)CC1)c1ccc(-c2cncnc2)c(Cl)c1Cl (centres unmarked) [Compound H0624, 3-(1-(2,3-dichloro-4-(pyrimidin-5-yl)phenyl)ethyl)-1-hydroxy-1-(1-methylpiperidin-4-yl)urea]",> 30000 nM,253 nM,
"CN1CCC(N(C)C(=O)NC(c2ccc(-c3cnccn3)c(Cl)c2Cl)C(F)(F)F)C1 (centres unmarked) [Compound H0871, 3-(1-(2,3-dichloro-4-(pyrazin-2-yl)phenyl)-2,2,2-trifluoroethyl)-1-methyl-1-(1-methylpyrrolidin-3-yl)urea]",> 30000 nM,9 nM,
"CC(NC(=O)N(C)C1CCC(F)(F)CC1)c1ccc(-c2cncnc2)c(Cl)c1Cl (centres unmarked) [Compound H0587, 3-(1-(2,3-dichloro-4-(pyrimidin-5-yl)phenyl)ethyl)-1-(4,4-difluorocyclohexyl)-1-methylurea]",> 30000 nM,> 30000 nM,
"CC(=O)N1CCC(N(C)C(=O)NC(C)c2ccc(-c3cncnc3)c(Cl)c2Cl)CC1 (centres unmarked) [Compound H0588, 1-(1-acetylpiperidin-4-yl)-3-(1-(2,3-dichloro-4-(pyrimidin-5-yl)phenyl)ethyl)-1-methylurea]",> 30000 nM,> 30000 nM,
"CC(NC(=O)N(C)C1CCN(C)CC1)c1ccc(-c2cncc(-c3c[nH]cn3)c2)c(Cl)c1Cl (centres unmarked) [Compound H0711, 3-(1-(4-(5-(1H-imidazol-4-yl)pyridin-3-yl)-2,3-dichlorophenyl)ethyl)-1-methyl-1-(1-methylpiperidin-4-yl)urea]",> 30000 nM,1850 nM,
"CC(NC(=O)N(C)C1CCN(C)CC1)c1ccc(-c2cncc(-c3cccs3)c2)c(Cl)c1Cl (centres unmarked) [Compound H0717, 3-(1-(2,3-dichloro-4-(5-(thiophen-2-yl)pyridin-3-yl)phenyl)ethyl)-1-methyl-1-(1-methylpiperidin-4-yl)urea]",> 30000 nM,396 nM,
"CC(NC(=O)N(C)C1CCN(C)CC1)c1ccc(-c2cncc(C#N)n2)c(Cl)c1Cl (centres unmarked) [Compound H0788, 3-(1-(2,3-dichloro-4-(6-cyanopyrazin-2-yl)phenyl)ethyl)-1-methyl-1-(1-methylpiperidin-4-yl)urea]",20 nM,88 nM,1230
"CC(NC(=O)N(C)C1CCN(C)CC1)c1ccc(-c2cncc(-c3cnn(C)c3)c2)c(Cl)c1Cl (centres unmarked) [Compound H0748, 3-(1-(2,3-dichloro-4-(5-(1-methyl-1H-pyrazol-4-yl)pyridin-3-yl)phenyl)ethyl)-1-methyl-1-(1-methylpiperidin-4-yl)urea]",> 30000 nM,554 nM,
"CC(NC(=O)N(C)C1CCN(C)CC1)c1ccc(-c2cncc(CCl)n2)c(Cl)c1Cl (centres unmarked) [Compound H0786, 3-(1-(2,3-dichloro-4-(6-(chloromethyl)pyrazin-2-yl)phenyl)ethyl)-1-methyl-1-(1-methylpiperidin-4-yl)urea]",242 nM,855 nM,980
"CC(O)C#Cc1ccc(C(C)NC(=O)N(C)C2CCN(C)CC2)c(Cl)c1Cl (centres unmarked) [Compound H0733, 3-(1-(2,3-dichloro-4-(3-hydroxybut-1-yn-1-yl)phenyl)ethyl)-1-methyl-1-(1-methylpiperidin-4-yl)urea]",> 30000 nM,95 nM,
